In patent US7696129B2, “Substituted aromatic amide derivative, intermediate thereof, agrohorticultural insecticide containing thereof and method for the use thereof” (Nihon Nohyaku Co., Ltd., priority 2001, dated 2010):

Key:
Type in all cases: in vivo
[1] = system: Diamond Back Moth (Plutella xylostella); test: Test Example 1: insecticidal effect on diamond back moth, immersion of Chinese cabbage seedling with eggs; details: 50 ppm, seedling with eggs immersed about 30 seconds, 25° C., six days after the immersion
From the text: Insecticidal Effect on Diamond Back Moth (Plutella xylostella)
Adult diamond back moths were released and allowed to oviposit on a Chinese cabbage seedling. Two days after the release, the seedling having the eggs deposited thereon was immersed for about 30 seconds in a liquid chemical prepared by diluting a preparation containing each compound listed in Tables 4 to 9 as an active ingredient to adjust the concentration to 50 ppm. After air-dryness, it was allowed to stand in a room thermostatted at 25° C. Six days after the immersion, the hatched insects were counted. The mortality was calculated according to the following equation and the insecticidal effect was judged according to the criterion shown below. The test was carried out with triplicate groups of 10 insects.

[2] = system: Smaller Tea Tortrix (Adxophyes sp.); test: Test Example 3: insecticidal effect on smaller tea tortrix, tea leaf immersion; details: 50 ppm, tea leaves immersed about 30 seconds, larvae, 25° C., humidity 70%, eight days after the inoculation
Experimental: Insecticidal Effect on Smaller Tea Tortrix (Adxophyes sp.)
Tea leaves were immersed for about 30 seconds in a liquid chemical prepared by diluting a preparation containing each compound listed in Tables 1 to 3 as an active ingredient to adjust the concentration to 50 ppm. After air-dryness, the tea leaves were placed in a plastic Petri dish with a diameter of 9 cm and inoculated with larvae of smaller tea tortrix, after which the dish was allowed to stand in a room thermostatted at 25° C. and having a humidity of 70%. Eight days after the inoculation, the dead and alive were counted and the insecticidal effect was judged according to the criterion shown in Test Example 1. The test was carried out with triplicate groups of 10 insects.

[3] = system: Common Cutworm (Spodoptera litura); test: Test Example 2: insecticidal effect on common cutworm, cabbage leaf immersion; details: 50 ppm, cabbage leaf immersed about 30 seconds, second-instar larvae, 25° C., eight days after the inoculation
From the text: Insecticidal Effect on Common Cutworm (Spodoptera litura)
A piece of cabbage leaf (cultivar; Shikidori) was immersed for about 30 seconds in a liquid chemical prepared by diluting a preparation containing each compound listed in Tables 4 to 9 as an active ingredient to adjust the concentration to 50 ppm. After air-dryness, it was placed in a plastic Petri dish with a diameter of 9 cm and inoculated with second-instar larvae of common cutworm, after which the dish was closed and then allowed to stand in a room thermostatted at 25° C. Eight days after the inoculation, the dead and alive were counted. The mortality was calculated according to the following equation and the insecticidal effect was judged according to the criterion shown in Test Example 1. The test was carried out with triplicate groups of 10 insects.

| Structure (SMILES) | Test Example 1 (insecticidal effect, mortality criterion) [1] | Test Example 3 (insecticidal effect, mortality criterion) [2] | Test Example 2 (insecticidal effect, mortality criterion) [3] |
| --- | --- | --- | --- |
| CSCC(C)(C)NC(=O)c1c(I)cccc1C(=O)Nc1ccc(CC(F)(F)F)cc1C [5-1] | A (Mortality 100%) | A (Mortality 100%) | A (Mortality 100%) |
| CSCC(C)(C)NC(=O)c1c(I)cccc1C(=O)Nc1ccc(CC(F)(F)F)cc1F [5-3] | A (Mortality 100%) | A (Mortality 100%) | A (Mortality 100%) |
| CSCC(C)(C)NC(=O)c1c(I)cccc1C(=O)Nc1ccc(CC(F)(F)F)cc1Cl [5-4] | A (Mortality 100%) | A (Mortality 100%) | A (Mortality 100%) |
| CSCC(C)(C)NC(=O)c1c(I)cccc1C(=O)Nc1ccc(CC(F)(F)C(F)(F)F)cc1C [5-5] | A (Mortality 100%) | A (Mortality 100%) | A (Mortality 100%) |
| CSCC(C)(C)NC(=O)c1c(I)cccc1C(=O)Nc1ccc(CC(F)(F)C(F)(F)F)cc1F [5-6] | A (Mortality 100%) | A (Mortality 100%) | A (Mortality 100%) |
| CSCC(C)(C)NC(=O)c1c(I)cccc1C(=O)Nc1ccc(CC(F)(F)C(F)(F)C(F)(F)F)cc1C [5-7] | A (Mortality 100%) | A (Mortality 100%) | A (Mortality 100%) |
| CSCC(C)(C)NC(=O)c1c(I)cccc1C(=O)Nc1ccc(CC(F)(F)C(F)(F)C(F)(F)C(F)(F)C(F)(F)F)cc1CC(F)(F)C(F)(F)C(F)(F)C(F)(F)C(F)(F)F [5-8] | A (Mortality 100%) | A (Mortality 100%) | A (Mortality 100%) |
| CC(C)NC(=O)c1c(I)cccc1C(=O)Nc1ccc(C(C(F)(F)F)C(F)(F)F)cc1 [5-9] | A (Mortality 100%) | A (Mortality 100%) | A (Mortality 100%) |
| CSCC(C)(C)NC(=O)c1c(I)cccc1C(=O)Nc1ccc(C(C(F)(F)F)C(F)(F)F)cc1 [5-10] | A (Mortality 100%) | A (Mortality 100%) | A (Mortality 100%) |
| Cc1cc(C(C(F)(F)F)C(F)(F)F)ccc1NC(=O)c1ccccc1C(=O)NC(C)C [5-11] | A (Mortality 100%) | A (Mortality 100%) | E (Mortality 49% or less) |
| CON=CC(C)(C)NC(=O)c1ccccc1C(=O)Nc1ccc(C(C(F)(F)F)C(F)(F)F)cc1C [5-12] | A (Mortality 100%) | A (Mortality 100%) | E (Mortality 49% or less) |
| CSCC(C)(C)NC(=O)c1ccccc1C(=O)Nc1ccc(C(C(F)(F)F)C(F)(F)F)cc1C [5-13] | A (Mortality 100%) | E (Mortality 49% or less) | E (Mortality 49% or less) |
| Cc1cc(C(C(F)(F)F)C(F)(F)F)ccc1NC(=O)c1cccc([N+](=O)[O-])c1C(=O)NC(C)C [5-14] | A (Mortality 100%) | A (Mortality 100%) | A (Mortality 100%) |
| CSCC(C)(C)NC(=O)c1c(C(=O)Nc2ccc(C(C(F)(F)F)C(F)(F)F)cc2C)cccc1[N+](=O)[O-] [5-15] | A (Mortality 100%) | A (Mortality 100%) | A (Mortality 100%) |
| CSCC(C)(C)NC(=O)c1c(F)cccc1C(=O)Nc1ccc(C(C(F)(F)F)C(F)(F)F)cc1C [5-16] | A (Mortality 100%) | A (Mortality 100%) | A (Mortality 100%) |
| Cc1cc(C(C(F)(F)F)C(F)(F)F)ccc1NC(=O)c1cccc(Cl)c1C(=O)NC(C)C [5-17] | A (Mortality 100%) | A (Mortality 100%) | A (Mortality 100%) |
| CON=CC(C)(C)NC(=O)c1c(Cl)cccc1C(=O)Nc1ccc(C(C(F)(F)F)C(F)(F)F)cc1C [5-18] | A (Mortality 100%) | A (Mortality 100%) | A (Mortality 100%) |
| CSCC(C)(C)NC(=O)c1c(Cl)cccc1C(=O)Nc1ccc(C(C(F)(F)F)C(F)(F)F)cc1C [5-19] | A (Mortality 100%) | A (Mortality 100%) | A (Mortality 100%) |
| CON=CC(C)(C)NC(=O)c1c(Br)cccc1C(=O)Nc1ccc(C(C(F)(F)F)C(F)(F)F)cc1C [5-20] | A (Mortality 100%) | A (Mortality 100%) | A (Mortality 100%) |
| Cc1cc(C(C(F)(F)F)C(F)(F)F)ccc1NC(=O)c1cccc(I)c1C(=O)NC(C)C [5-21] | A (Mortality 100%) | A (Mortality 100%) | A (Mortality 100%) |
| Cc1cc(C(C(F)(F)F)C(F)(F)F)ccc1NC(=O)c1cccc(I)c1C(=O)NC(C)(C)C [5-22] | A (Mortality 100%) | A (Mortality 100%) | C (Mortality 89-80%) |
| Cc1cc(C(C(F)(F)F)C(F)(F)F)ccc1NC(=O)c1cccc(I)c1C(=O)NC(C)(C)CC(C)(C)C [5-23] | A (Mortality 100%) | A (Mortality 100%) |  |
| C#CC(C)(C)NC(=O)c1c(I)cccc1C(=O)Nc1ccc(C(C(F)(F)F)C(F)(F)F)cc1C [5-24] | A (Mortality 100%) | A (Mortality 100%) | C (Mortality 89-80%) |
| CCOC(=O)C=CC(C)(C)NC(=O)c1c(I)cccc1C(=O)Nc1ccc(C(C(F)(F)F)C(F)(F)F)cc1C [5-25] | A (Mortality 100%) | A (Mortality 100%) | A (Mortality 100%) |
| CON=CC(C)(C)NC(=O)c1c(I)cccc1C(=O)Nc1ccc(C(C(F)(F)F)C(F)(F)F)cc1C [5-26] | A (Mortality 100%) | A (Mortality 100%) | C (Mortality 89-80%) |
| Cc1cc(C(C(F)(F)F)C(F)(F)F)ccc1NC(=O)c1cccc(I)c1C(=O)NC(C)(C)CO [5-27] | A (Mortality 100%) | E (Mortality 49% or less) | E (Mortality 49% or less) |
| Cc1cc(C(C(F)(F)F)C(F)(F)F)ccc1NC(=O)c1cccc(I)c1C(=O)NC(C)COC(=O)N(C)Cc1ccccc1 (centres unmarked) [5-31] | A (Mortality 100%) | A (Mortality 100%) | A (Mortality 100%) |
| CCNC(=O)OCC(C)NC(=O)c1c(I)cccc1C(=O)Nc1ccc(C(C(F)(F)F)C(F)(F)F)cc1C (centres unmarked) [5-32] | A (Mortality 100%) | A (Mortality 100%) | A (Mortality 100%) |
| Cc1cc(C(C(F)(F)F)C(F)(F)F)ccc1NC(=O)c1cccc(I)c1C(=O)NC(C)COC(=O)NCc1ccccc1 (centres unmarked) [5-33] | A (Mortality 100%) | A (Mortality 100%) | A (Mortality 100%) |
